# Measurements reported in patent US4127572A, “Method of using 2(1H)-quinazolinethiones” (The Dow Chemical Company, priority 1978, dated 1978).
# Assays:
# [1] = test system: reserpine-induced ptosis; experiment: Protection against reserpine-induced ptosis in mice; format: in vivo; settings: 60 mg/kg intraperitoneal, 30 minutes before 2.5 mg/kg reserpine subcutaneous, graded after 45 minutes
# Protocol: A similar group of mice serving as controls were injected only with the carrier. After 30 minutes, both groups of mice were injected subcutaneously with 2.5 mg/kg of reserpine. […] Animals injected with the benzotriazepine compound were graded after 45 minutes on the following basis: no ptosis = 0, partial ptosis = 1, complete ptosis = 2.
# [2] = test system: norepinephrine uptake in synaptosome preparations; experiment: Uptake of norepinephrine in rat forebrain synaptosome preparations; format: biochemical, rats; settings: 10 μg/ml, 37° C., rat forebrain synaptosomes, versus saline control; low values indicate activity
# Protocol: (§1) Antidepressant activity may also be illustrated in vitro by measuring the uptake of the neurotransmittors norepinephrine and serotonin in synaptosome preparations prepared from the forebrains of rats. The synaptosome preparation is incubated at 37° C. with radioactive neurotransmittor and the test compound at a concentration of 10 μg/ml. The synaptosome are isolated and the uptake of labelled neurotransmittor measured by liquid scintillation spectrometry using standard techniques. Percent inhibiton of uptake is determined by comparing the radioactivity taken in the synaptosome preparation with that of a similarly incubated saline control. Low values indicate activity.
# [3] = test system: serotonin uptake in synaptosome preparations; experiment: Uptake of serotonin in rat forebrain synaptosome preparations; format: biochemical, rats; settings: 10 μg/ml, 37° C., rat forebrain synaptosomes, versus saline control; low values indicate activity
# Protocol: as §1
# [4] = test system: stress induced rise of serum corticosteroid levels; experiment: Block of stress induced rise of serum corticosteroid levels in rats; format: in vivo; settings: 10 mg/kg intraperitoneal, stressed male rats; values less than 1.0 indicative of activity
# Protocol: See British Medical Journal, 1971(2), p. 310-313. Corticosteroid levels were compared between stressed male rats pretreated with 10 mg/kg given by intraperitoneal injection to corticosteroid levels of stressed male rats pretreated with saline. The results were expressed as a ratio with values less than 1.0 indicative of activity. The compound 6-chloro-3,4-dihydro-4-hydroxy-3-(3-(4-morpholinyl)propyl)-4-phenyl-2(1H)- quinazolinethione (Example 12) gave a value of 0.12.
molecule,measurement,setting,value
"6-chloro-3-(3-dimethylamino)propyl-3,4-dihydro-4-hydroxy-4-phenyl-2(1H)-quinazolinethione [Example 7]","sum of ptosis grades for the four test mice (no ptosis = 0, partial = 1, complete = 2; out of a possible 8)",[1]; controls 8,4
same,protection against reserpine-induced ptosis,[1]; four mice,50%
CCN(CC)CCN1C(=S)Nc2ccc(Cl)cc2C1(O)c1ccccc1 (centres unmarked) [Example 8],norepinephrine uptake relative to saline control,[2],3%
same,inhibition of seratonin uptake,[3],7%
"OC1(c2ccccc2)c2cc(Cl)ccc2NC(=S)N1CCCN1CCOCC1 (centres unmarked) [Example 12, 6-chloro-3,4-dihydro-4-hydroxy-3-(3-(4-morpholinyl)propyl)-4-phenyl-2(1H)-quinazolinethione]","ratio of corticosteroid levels, stressed rats pretreated with compound to stressed rats pretreated with saline",[4],0.12
